Laboratory results reported in ChEMBL document CHEMBL1148249, “Design and synthesis of bridged gamma-lactams as analogues of beta-lactam antibiotics” (Bioorg Med Chem Lett, 2004).
Values after ≈ are worked out from the molar mass of the structure shown. Active and inactive are the calls of the source. The rule behind the calls is not given here.

What was measured:
[1] = Time dependent inhibition of hydrolysis of nitrocefin after 5 min pre-incubation with TEM-1 beta-lactamase (class 1)
Staphylococcus aureus [2] = assay: Minimum inhibitory concentration against Staphylococcus aureus; No activity; type: functional, organism-based
[3] = Half life at a pH of 9 and temperature 37 degree; type: ADME; conditions: pH 9
[4] = Inhibition of hydrolysis of nitrocefin after 5 min pre-incubation with TEM-1 beta-lactamase (class 1)
Staphylococcus aureus [5] = assay: Minimum inhibitory concentration against Staphylococcus aureus;; type: functional
Pseudomonas aeruginosa = assay: Minimum inhibitory concentration against Pseudomonas aeruginosa; 40-80 ug/mL; type: functional
Serratia marcescens = assay: Minimum inhibitory concentration against Serratia marcescens; 40-80 ug/mL; type: functional
Enterobacter cloacae = assay: Minimum inhibitory concentration against Enterobacter cloacae; 40-80 ug/mL; type: functional
[6] = Antibacterial activity expressed as binding to PBP 4 of Pseudomonas aeruginosa
[7] = Antibacterial activity expressed as binding to PBP 1a of Pseudomonas aeruginosa
[8] = Antibacterial activity expressed as binding to PBP 1b of Pseudomonas aeruginosa
[9] = Antibacterial activity expressed as binding to PBP 5 of Pseudomonas aeruginosa
[10] = Antibacterial activity expressed as binding to PBP 2 of Pseudomonas aeruginosa
[11] = Antibacterial activity expressed as binding to PBP 3 of Pseudomonas aeruginosa

| SMILES | IC50 [1] [µM] | MIC (Staphylococcus aureus [2]) | half-life [3] [min] | IC50 [4] [µM] | other results |
| --- | --- | --- | --- | --- | --- |
| COC1=C[C@@H]2CC(=O)N(C2)C1C(=O)O (stereo partly specified) | – | – | 14 | 280 | MIC (Staphylococcus aureus [5]): 80 µg/mL (≈ 406 µM); MIC (Pseudomonas aeruginosa): 80 µg/mL (≈ 406 µM); MIC (Serratia marcescens): 80 µg/mL (≈ 406 µM); MIC (Enterobacter cloacae): 80 µg/mL (≈ 406 µM) |
| O=C(O)[C@H]1/C(=C/CO)O[C@@H]2CC(=O)N21 [CLAVULANIC ACID] | 0.065 | – | 120 | – | – |
| CC(O)[C@H]1C(=O)N2C(C(=O)O)=C(SCCNC=N)C[C@H]12 (single isomer, unassigned) [IMIPENEM ANHYDROUS] | – | – | – | – | IC50 [6]: < 0.1 µM; IC50 [7]: 0.3 µM; IC50 [8]: 0.6 µM; IC50 [9]: 2.3 µM; IC50 [10]: < 0.6 µM |
| CC[C@@H]1C(=O)N2C[C@@H]1CC(OC)=C2C(=O)O | 700 | inactive | 25 | – | IC50 [6]: 5 µM; IC50 [7]: > 50 µM; MIC (Pseudomonas aeruginosa): 80 µg/mL (≈ 355 µM); MIC (Serratia marcescens): 80 µg/mL (≈ 355 µM); IC50 [8]: > 50 µM; IC50 [11]: 5 µM; IC50 [9]: 50 µM; MIC (Enterobacter cloacae): 80 µg/mL (≈ 355 µM); IC50 [10]: 50 µM |
| COC1=C(C(=O)OCc2ccc([N+](=O)[O-])cc2)N2C[C@@H](CC2=O)C1 | – | inactive | 6 | 54 | – |

Now from value to compound, other results behind:

| IC50 [1] [µM] | MIC (Staphylococcus aureus [2]) | half-life [3] [min] | IC50 [4] [µM] | SMILES | other results |
| --- | --- | --- | --- | --- | --- |
| 420 | inactive | 55 | – | CC[C@@H]1C(=O)N2C[C@@H]1C=C(OC)C2C(=O)OCc1ccc([N+](=O)[O-])cc1 (stereo partly specified) | – |
| – | inactive | – | 45 | COC1=CC2CC(=O)N(C2)C1C(=O)OCc1ccc([N+](=O)[O-])cc1 (stereo unspecified) | – |
| – | inactive | 42 | > 1000 | CC[C@@H]1C(=O)N2C[C@@H]1CC(OC)=C2C(=O)OCc1ccc([N+](=O)[O-])cc1 | – |
